Measured values from PubChem BioAssay AID588626 (NMMLSC, 2011).
Activity calls are given as the source filed them.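 Rule for the calls: active = half-effect potency at or under 10 µM with a response span of at least 30% after curve fit checks such as Hill slope 0.5 to 2; inactive = the rest.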

molecular target: Cell division control protein 42 homolog (Homo sapiens) (UniProt P60953); test: wild-type Cdc42 fluorescent nucleotide binding blockers – biochemical, wildtype, bead multiplex, flow cytometry, round 2, SAR follow-up (AID 588626); conditions: Bead-based flow cytometry, Bodipy-FL-GTP binding, EDTA buffer
Sequence (P60953 whole entry, looked up): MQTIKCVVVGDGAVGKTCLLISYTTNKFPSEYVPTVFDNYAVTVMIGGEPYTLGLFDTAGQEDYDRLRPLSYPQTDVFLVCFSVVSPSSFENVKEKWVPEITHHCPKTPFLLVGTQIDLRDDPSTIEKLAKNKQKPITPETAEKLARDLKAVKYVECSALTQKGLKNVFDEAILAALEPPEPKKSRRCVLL

EC50 | Structure (SMILES)
0.528 µM | Cc1ccc(C(=O)NC(=S)Nc2sc3c(c2C(=O)O)CC(C)(C)OC3)cc1
17.8 µM | CC1Cc2c(sc(NC(=S)NC(=O)c3ccccc3)c2C(=O)O)CO1 (stereo not drawn)
19.5 µM | CC1(C)Cc2c(sc(NC(=S)NC(=O)c3cccc(Br)c3)c2C(=O)O)CO1
1.57 µM | CC(C)(C)C1Cc2c(sc(NC(=S)NC(=O)c3ccccc3)c2C(=O)O)CO1 (stereo not drawn)
7.37 µM | CC1(C)Cc2c(sc(NC(=S)NC(=O)c3ccccc3F)c2C(=O)O)CO1
2.66 µM | Cc1ccccc1C(=O)NC(=S)Nc1sc2c(c1C(=O)O)CC(C)(C)OC2
5.87 µM | Cc1cccc(C(=O)NC(=S)Nc2sc3c(c2C(=O)O)CC(C)(C)OC3)c1
2.64 µM | CC1(C)Cc2c(sc(NC(=S)NC(=O)C3CCCCC3)c2C(=O)O)CO1

same assay, conditions: Bead-based flow cytometry, Bodipy-FL-GTP binding, EDTA buffer; at 100 µM (top of the series)

% response (GTP binding remaining) | Structure (SMILES)
inactive | CC1(C)Cc2c(sc(NC(=S)NC(=O)c3ccc(Br)cc3)c2C(=O)O)CO1
inactive | CC1(C)CCc2sc(NC(=S)NC(=O)c3ccccc3)c(C(=O)O)c2C1
inactive | CC1(C)Cc2c(sc(NC(=S)NC(=O)c3cccc(F)c3)c2C(=O)O)CO1
inactive | CC1(C)Cc2c(sc(NC(=S)NC(=O)c3ccco3)c2C(=O)O)CO1
inactive | COc1ccc(C(=O)NC(=S)Nc2sc3c(c2C(=O)O)CC(C)(C)OC3)cc1
inactive | CCC1(C)Cc2c(sc(NC(=S)NC(=O)c3ccccc3)c2C(=O)O)CO1 (stereo not drawn)
inactive | O=C(NC(=S)Nc1sc2c(c1C(=O)O)CCOC2)c1ccccc1
inactive | COc1ccccc1C(=O)NC(=S)Nc1sc2c(c1C(=O)O)CC(C)(C)OC2
inactive | CC1(C)Cc2c(sc(NC(=S)NC(=O)c3ccccc3Br)c2C(=O)O)CO1
inactive | COc1cccc(C(=O)NC(=S)Nc2sc3c(c2C(=O)O)CC(C)(C)OC3)c1
inactive | CC1(C)Cc2c(sc(NC(=S)NC(=O)c3ccc(F)cc3)c2C(=O)O)CO1
inactive | O=C(NC(=S)Nc1sc2c(c1C(=O)O)CC1(CCCC1)OC2)c1ccccc1
inactive | CC1(C)Cc2c(sc(NC(=S)Nc3ccccc3)c2C(=O)O)CO1
inactive | CC1(C)Cc2c(sc(NC(=S)NC(=O)c3cccs3)c2C(=O)O)CO1
inactive | CC1(C)Cc2c(sc(NC(=O)NC(=O)c3ccccc3)c2C(=O)O)CO1
